In patent publication US20130035232A1, “INDUCTION AND STABILIZATION OF ENZYMATIC ACTIVITY IN MICROORGANISMS” (GEORGIA STATE UNIVERSITY RESEARCH FOUNDATION, INC., priority 2010, published 2013):

Tests used:
[1] = tested on: asparaginase I; experiment: 20 liter fermentation with asparagine feed: asparaginase I; type: cell-based, Rhodococcus sp. DAP 96253; settings: end of 20 liter fermentation; asparagine 0.15M at 1000 μl/min from t=10 hour; FIG. 5
Procedure: (§1) Rhodococcus sp. DAP 96253 were grown using biphasic medium as the source of inoculum for a 20 liter fermentation. The supplemental addition of medium/carbohydrate (either YEMEA, dextrose or maltose) was made to the modified R2A medium, containing cottonseed hydrolysate substituted for the Proteos Peptone 3 (PP3). Asparagine (0.15M solution) was added at a continuous rate of 1000 μl/min beginning at t=10 hour. At the end of the fermentation run, 159 units per milligram cell dry weight of acrylonitrile specific nitrile hydratase, 22 units of amidase per milligram cell dry weight, and 16 g/l cell packed wet weight were produced.

[2] = tested on: asparaginase I; experiment: Effect of inducer and media composition on asparaginase I production; type: cell-based, Rhodococcus sp. DAP 96253; settings: Rhodococcus sp. DAP 96253, inducer 1000 ppm
Procedure: Testing was performed to evaluate the effect on asparaginase I activity based upon the inducer used. In particular, testing was performed using asparagine, glutamine, succinonitrile, and isovaleronitrile as inducers (all added at 1000 ppm each).

[3] = tested on: Rhodococcus rhodochrous DAP 96622 ATCC 55898; experiment: Growth on supplemented YEMEA (visual grade); type: cell-based; parameters: key: (−) meaning no detectable growth; (+/−) meaning scant growth; (+) meaning little growth; (++) meaning good growth; (+++) meaning very good growth; (++++) meaning excellent growth; settings: 26 °C, 7.5 g/L urea, 10 ppm cobalt, supplement 3.8 mM
Procedure: (§2) The relative growth of various nitrile hydratase producing microorganisms was evaluated. All strains were grown on YEMEA medium containing 7.5 g/L of urea and 10 ppm cobalt (provided as cobalt chloride) supplemented with asparagine (ASN), glutamine (GLN), or both asparagine and glutamine. The asparagine and glutamine were added at a concentration of 3.8 mM. Growth temperature was in the range of 26° C. to 30° C. Growth was evaluated by visual inspection and graded on the following scale: (−) meaning no detectable growth; (+/−) meaning scant growth; (+) meaning little growth; (++) meaning good growth; (+++) meaning very good growth; and (++++) meaning excellent growth.

[4] = tested on: Pseudomonas chloroaphis ATCC 13985; experiment: Growth on supplemented YEMEA (visual grade); type: cell-based; parameters: key: (−) meaning no detectable growth; (+/−) meaning scant growth; (+) meaning little growth; (++) meaning good growth; (+++) meaning very good growth; (++++) meaning excellent growth; settings: 26 °C, 7.5 g/L urea, 10 ppm cobalt, supplement 3.8 mM
Procedure: as §2

[5] = tested on: Rhodococcus erythropolis ATCC 47072; experiment: Growth on supplemented YEMEA (visual grade); type: cell-based; parameters: key: (−) meaning no detectable growth; (+/−) meaning scant growth; (+) meaning little growth; (++) meaning good growth; (+++) meaning very good growth; (++++) meaning excellent growth; settings: 26 °C, 7.5 g/L urea, 10 ppm cobalt, supplement 3.8 mM
Procedure: as §2

[6] = tested on: Rhodococcus sp. DAP 96253 ATCC 55899; experiment: Growth on supplemented YEMEA (visual grade); type: cell-based; parameters: key: (−) meaning no detectable growth; (+/−) meaning scant growth; (+) meaning little growth; (++) meaning good growth; (+++) meaning very good growth; (++++) meaning excellent growth; settings: 30 °C, 7.5 g/L urea, 10 ppm cobalt, supplement 3.8 mM
Procedure: as §2

[7] = tested on: Pseudomonas chloroaphis ATCC 43051; experiment: Growth on supplemented YEMEA (visual grade); type: cell-based; parameters: key: (−) meaning no detectable growth; (+/−) meaning scant growth; (+) meaning little growth; (++) meaning good growth; (+++) meaning very good growth; (++++) meaning excellent growth; settings: 30 °C, 7.5 g/L urea, 10 ppm cobalt, supplement 3.8 mM
Procedure: as §2

[8] = tested on: Brevibacterium ketoglutaricum ATCC 21533; experiment: Growth on supplemented YEMEA (visual grade); type: cell-based; parameters: key: (−) meaning no detectable growth; (+/−) meaning scant growth; (+) meaning little growth; (++) meaning good growth; (+++) meaning very good growth; (++++) meaning excellent growth; settings: 30 °C, 7.5 g/L urea, 10 ppm cobalt, supplement 3.8 mM
Procedure: as §2

[9] = tested on: asparaginase I; experiment: Asparaginase I production on supplemented medium; type: cell-based; settings: YEMEA, 7.5 g/L urea, 10 ppm cobalt
Procedure: The induction of asparaginase I production in various nitrile hydratase producing microorganisms was evaluated. All strains were grown on YEMEA medium containing 7.5 g/L of urea and 10 ppm cobalt (provided as cobalt chloride) supplemented with asparagine (ASN), glutamine (GLN), or both asparagine and glutamine. The asparagine and glutamine were added at a concentration of 3.8 mM. As a comparative, enzyme production was also evaluated with supplementation with acrylonitrile (AN), acrylamide (AMD) or acrylonitrile and acrylamide. Growth temperature was in the range of 26° C. to 30° C.

[10] = tested on: amidase; experiment: 20 liter fermentation with asparagine feed: amidase; type: cell-based, Rhodococcus sp. DAP 96253; settings: end of 20 liter fermentation; asparagine 0.15M at 1000 μl/min from t=10 hour
Procedure: as §1

[11] = tested on: amidase; experiment: Amidase induction by inducers (Example 1); type: cell-based, Rhodococcus sp., strain DAP 96253
Procedure: The induction of nitrile hydratase activity and amidase activity in Rhodococcus sp., strain DAP 96253, was evaluated using multiple types of inducers (1000 ppm). Three different samples were cultured in YEMEA medium containing 10 ppm cobalt and 7.5 g/L urea and supplemented with acrylonitrile, asparagine, or glutamine. The specific nitrile hydratase activity and the specific amidase activity in each sample was evaluated, and the results are provided below in Table 3, with activities provided in units/mg cdw (cell dry weight). One unit of nitrile hydratase activity relates to the ability to convert 1 μmol of acrylonitrile to its corresponding amide per minute, per milligram of cells (dry weight) at a pH of 7.0 and a temperature of 30° C. One unit of amidase activity relates to the ability to convert 1 μmol of acrylamide to its corresponding acid per minute, per milligram of cells (dry weight) pH of 7.0 and a temperature of 30° C.

NC(=O)C[C@H](N)C(=O)O [Asparagine, asparagine]
asparaginase I produced [1]: 16 units per milligram cell dry weight
Asparaginase I levels, YEMEA - Glucose With Cobalt ([2]; YEMEA - Glucose, with cobalt): 6.5 units/mg cell dry weight
Asparaginase I levels, YEMEA - Glucose Without Cobalt ([2]; YEMEA - Glucose, without cobalt): 5.3 units/mg cell dry weight
Asparaginase I levels, YEMEA - Maltose With Cobalt ([2]; YEMEA - Maltose, with cobalt): 24.6 units/mg cell dry weight
Asparaginase I levels, YEMEA - Maltose Without Cobalt ([2]; YEMEA - Maltose, without cobalt): 8.7 units/mg cell dry weight
Growth [3]: ++++
Growth [4]: +
Growth [5]: ++
Growth [6]: ++++
Growth [7]: +
Growth [8]: +
Asparaginase I Level Based on Growth Medium Supplementation ([9]; Brevibacterium ketoglutaricum ATCC 21533, 30 °C): 19.1 Units/mg cdw
Asparaginase I Level Based on Growth Medium Supplementation ([9]; Pseudomonas chloroaphis ATCC 13985, 26 °C): 0 Units/mg cdw
Asparaginase I Level Based on Growth Medium Supplementation ([9]; Pseudomonas chloroaphis ATCC 43051, 30 °C): 18.4 Units/mg cdw
Asparaginase I Level Based on Growth Medium Supplementation ([9]; Rhodococcus erythropolis ATCC 47072, 26 °C): 1 Units/mg cdw
Asparaginase I Level Based on Growth Medium Supplementation ([9]; Rhodococcus rhodochrous DAP 96622 ATCC 55898, 26 °C): 12.3 Units/mg cdw
Asparaginase I Level Based on Growth Medium Supplementation ([9]; Rhodococcus sp. DAP 96253 ATCC 55899, 30 °C): 12.5 Units/mg cdw
amidase produced [10]: 22 units per milligram cell dry weight
Amidase Activity ([11]; Rhodococcus sp. DAP 96253, YEMEA, 10 ppm cobalt, 7.5 g/L urea, inducer 1000 ppm): 13.24 Units/mg cdw
amidase activity greater than that resulting from acrylonitrile ([11]; relative to acrylonitrile as inducer, 1000 ppm): approximately 74%
